Data published in BindingDB's records for doi:10.1021/jm960288w (Drew University, 1997).

Test: Compound was tested for inhibition of [3H]WIN-35428 binding at the dopamine transporter in brain from guinea pig striatal membrane

SMILES	IC50 [nM]
OC1(c2ccc(Cl)cc2)c2ccccc2C2=NCCCCN21 (configuration not stated) [7-(4-Chloro-phenyl)-2,4,5,7-tetrahydro-3H-[1,3]diazepino[2,1-a]isoindol-7-ol]	2.7
OC1(c2ccc(Cl)cc2)c2ccccc2C2=NCCCN21 (configuration not stated) [9-(4-Chloro-phenyl)-1,2,3,9-tetrahydro-4,9a-diaza-fluoren-9-ol]	4.2
